Assay [1] addresses IKKε (Homo sapiens (Human), UniProt Q14164). Put plainly: IKKε time-resolved fluorescence Lanthascreen kinase inhibition assay. The note with it: 20 μM ATP (apparent Km), 2 nM kinase, 1 hr; values are activity bands; read-out: Inhibition of IKKε IC50. The assay is classed as biochemical. Here is the method: (§1) Compounds of the invention (synthesised as described below) were tested for activity against the IKKε and TBK-1 enzyme as follows:
(§2) Inhibitions studies were performed using a time-resolved fluorescence-based Lanthascreen™ assay. Phosphorylation of a fluorescein-labelled substrate peptide is measured using terbium-labeled phosphospecific antibodies. Terbium is excited at 340 nm and the FRET energy transfer to fluorescein is measured at 495 and 520 nm. The emission ratio between 520 and 495 is a measure of the level of phosphorylation of the substrate by the kinase.
(§3) Kinase inhibition assays (10 μL) were performed at 20° C. in 384-well plate format. Compound IC50 values were determined at the apparent Km for ATP (20 μM) based on a radiometric assay (Invitrogen) using 8 or 10 point curves in duplicate. The final reaction conditions contained 400 nM fluorescein-IkBα substrate ([…]), 20 μM ATP, 2 nM or 8 nM IKKε or TBK1 kinase respectively, and 3% DMSO in kinase assay buffer consisting of 50 mM HEPES (pH 7.5), 10 mM MgCl, 1 mM EGTA, 0.01% Brij-35.
(§4) Compound dilutions were prepared from 10 mM DMSO stocks by dilution into DMSO.
(§5) The kinase phosphorylation assay was initiated by the addition of the kinase and the reaction was allowed to proceed for 1 hr or 2.5 hr for IKKε and TBK-1 kinase respectively. […] The reaction was stopped by the addition of 10 mM EDTA, and phosphorylation was detected after a 1 hr incubation with 1.5 nM terbium-labelled antibody against phosphorylation at Serine 32 on the IkBα[…]peptide, both in TR-FRET dilution buffer (Invitrogen).
(§6) In the data presented for IKKε, <9 μM means having an activity in the range from 300 nM≦9 μM; and <300 nM means having an activity in the range 30 nM≦300 nM; and for the data presented for TBK-1, <3 μM means having an activity in the range 300 nM≦3 μM, and <300 nM means having an activity in the range 30 nM≦300 nM.

The target in assay [2] is TBK-1 (Homo sapiens (Human), UniProt Q9UHD2). Put plainly: biochemical. The note with it: 20 μM ATP (apparent Km), 8 nM kinase, 2.5 hr; values are activity bands; read-out: Inhibition of TBK-1 IC50. On the procedure:
as §1, §2, §3, §4, §5, §6

Chain of IKKε (Q14164 whole entry): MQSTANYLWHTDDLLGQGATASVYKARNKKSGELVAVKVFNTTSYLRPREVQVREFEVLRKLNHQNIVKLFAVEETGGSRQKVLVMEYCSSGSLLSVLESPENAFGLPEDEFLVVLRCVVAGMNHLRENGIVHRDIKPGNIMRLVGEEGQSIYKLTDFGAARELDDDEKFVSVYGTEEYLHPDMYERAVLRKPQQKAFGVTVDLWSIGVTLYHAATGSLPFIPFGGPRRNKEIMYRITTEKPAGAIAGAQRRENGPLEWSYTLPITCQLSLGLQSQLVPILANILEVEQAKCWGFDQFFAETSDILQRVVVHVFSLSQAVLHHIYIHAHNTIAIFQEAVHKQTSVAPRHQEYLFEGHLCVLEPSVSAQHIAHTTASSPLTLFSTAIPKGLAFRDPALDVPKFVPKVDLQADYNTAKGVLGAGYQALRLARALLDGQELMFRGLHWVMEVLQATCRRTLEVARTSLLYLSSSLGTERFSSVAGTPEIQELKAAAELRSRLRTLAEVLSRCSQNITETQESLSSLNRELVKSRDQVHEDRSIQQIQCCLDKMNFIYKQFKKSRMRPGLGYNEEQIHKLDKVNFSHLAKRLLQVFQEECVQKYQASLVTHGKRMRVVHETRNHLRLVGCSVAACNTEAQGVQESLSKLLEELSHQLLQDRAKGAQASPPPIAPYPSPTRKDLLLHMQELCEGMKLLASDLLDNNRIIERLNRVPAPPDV
Chain of TBK-1 (Q9UHD2 whole entry): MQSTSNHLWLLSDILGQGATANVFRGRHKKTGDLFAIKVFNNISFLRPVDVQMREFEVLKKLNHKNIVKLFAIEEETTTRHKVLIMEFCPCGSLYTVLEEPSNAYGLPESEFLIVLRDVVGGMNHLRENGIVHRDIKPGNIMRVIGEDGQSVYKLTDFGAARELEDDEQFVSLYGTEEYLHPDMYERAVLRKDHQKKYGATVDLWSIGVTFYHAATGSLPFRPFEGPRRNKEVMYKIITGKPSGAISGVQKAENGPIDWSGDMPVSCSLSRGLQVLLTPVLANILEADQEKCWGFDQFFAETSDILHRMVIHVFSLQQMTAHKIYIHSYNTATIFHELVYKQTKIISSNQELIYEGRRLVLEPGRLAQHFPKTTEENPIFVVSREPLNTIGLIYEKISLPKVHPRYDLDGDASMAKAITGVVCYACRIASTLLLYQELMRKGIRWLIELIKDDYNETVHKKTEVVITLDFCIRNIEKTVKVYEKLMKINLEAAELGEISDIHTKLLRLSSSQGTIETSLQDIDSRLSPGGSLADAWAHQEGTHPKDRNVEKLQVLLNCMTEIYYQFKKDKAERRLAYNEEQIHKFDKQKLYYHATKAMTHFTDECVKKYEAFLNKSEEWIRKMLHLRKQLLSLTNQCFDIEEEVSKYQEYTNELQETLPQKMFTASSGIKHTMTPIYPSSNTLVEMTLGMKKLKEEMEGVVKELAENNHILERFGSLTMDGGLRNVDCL

Broadly, the IC50 is the midpoint of a concentration-inhibition curve. As to `N#Cc1cc(-c2ccnc(Nc3cccc(C(F)(F)F)c3)n2)ccc1N1CCCC1` [DMX-2], the IC50 in assay [1] was 0.3 to 9 µM.

For `N#Cc1cc(-c2ccnc(Nc3cccc(F)c3)n2)ccc1N1CCCC1` [DMX-3], the IC50 in assay [1] lay within 0.03 to 0.3 µM.

Regarding `N#Cc1cc(-c2ccnc(Nc3ccc(F)cc3)n2)ccc1N1CCCC1` [DMX-4], in assay [1], the IC50 lay within 0.03 to 0.3 µM. For `COc1cccc(Nc2nccc(-c3ccc(N4CCCC4)c(C#N)c3)n2)c1` [DMX-5], the IC50 in assay [1] was less than 0.03 µM. Same read-out and setting: to `COc1ccc(Nc2nccc(-c3ccc(N4CCCC4)c(C#N)c3)n2)cc1` [DMX-6] belongs less than 0.03 µM. For the molecule `CC(=O)Nc1cccc(Nc2nccc(-c3ccc(N4CCCC4)c(C#N)c3)n2)c1` [DMX-7], the IC50 in assay [1] and in assay [2] was less than 0.03 µM each time. For `CS(=O)(=O)c1cccc(Nc2nccc(-c3ccc(N4CCCC4)c(C#N)c3)n2)c1` [DMX-10], the IC50 in assay [1] and in assay [2] was less than 0.03 µM throughout.

Take `N#Cc1cc(-c2ccnc(Nc3ccccc3)n2)ccc1N1CCCC1` [DMX-11]: the IC50 in assay [1] was in the range of 0.3 to 9 µM.

On to `N#Cc1cc(-c2ccnc(Nc3ccncc3)n2)ccc1N1CCCC1` [DMX-12], for which the IC50 in assay [1] lay within 0.3 to 9 µM. `N#Cc1cc(-c2ccnc(Nc3ccccn3)n2)ccc1N1CCCC1` [DMX-13]: the IC50 in assay [1] was in the range of 0.3 to 9 µM. On to `CC(=O)Nc1ccc(Nc2nccc(-c3ccc(N4CCCC4)c(C#N)c3)n2)cn1` [DMX-15], for which the IC50 in assay [1] and in assay [2] was less than 0.03 µM in each case. As for `N#Cc1cc(-c2ccnc(Nc3ccc4c(c3)NC(=O)CC4)n2)ccc1N1CCCC1` [DMX-17], the 50% inhibitory concentration (IC50) in assay [1] and in assay [2] was less than 0.03 µM in each case. Take `N#Cc1cc(-c2ccnc(Nc3cccnc3)n2)ccc1N1CCCC1` [DMX-18]: the IC50 in assay [1] was less than 0.03 µM. Consider `CN1CCN(c2ccc(Nc3nccc(-c4ccc(N5CCCC5)c(C#N)c4)n3)cn2)CC1` [DMX-19], for which the IC50 in assay [1] and in assay [2] was less than 0.03 µM throughout. Regarding `CN(C)c1ccc(Nc2nccc(-c3ccc(N4CCCC4)c(C#N)c3)n2)cn1` [DMX-20], the IC50 in assay [1] and in assay [2] was less than 0.03 µM each time. Consider `Cc1cc(C(N)=O)ccc1Nc1nccc(-c2ccc(N3CCCC3)c(C#N)c2)n1` [DMX-21], for which the IC50 in assay [1] and in assay [2] was 0.03 to 0.3 µM each time. In the case of `N#Cc1cc(-c2ccnc(Nc3cccc(NC(=O)N4CCCC4)c3)n2)ccc1N1CCCC1` [DMX-22, Pyrrolidine-1-carboxylic acid {3-[4-(3-cyano-4-pyrrolidin-1-yl-phenyl)-pyrimidin-2-ylamino]-phenyl}-amide], the IC50 in assay [1] and in assay [2] was less than 0.03 µM each time. On to `Cc1cc(Nc2nccc(-c3ccc(N4CCCC4)c(C#N)c3)n2)no1` [DMX-25], for which the IC50 in assay [1] lay within 0.3 to 9 µM. With `Cc1cc(Nc2nccc(-c3ccc(N4CCCC4)c(C#N)c3)n2)on1` [DMX-26], the IC50 in assay [1] and in assay [2] was 0.03 to 0.3 µM throughout. In the case of `Cn1nccc1Nc1nccc(-c2ccc(N3CCCC3)c(C#N)c2)n1` [DMX-27], the results for the IC50 in assay [1] and in assay [2] were 0.03 to 0.3 µM and less than 0.03 µM, respectively. The like results for `Cn1ccc(Nc2nccc(-c3ccc(N4CCCC4)c(C#N)c3)n2)n1` [DMX-29] were, in that order, 0.03 to 0.3 µM and 0.03 to 0.3 µM. Consider `Cc1cnc(Nc2nccc(-c3ccc(N4CCCC4)c(C#N)c3)n2)s1` [DMX-30], for which, in assay [1], the IC50 was in the range of 0.3 to 9 µM.

Regarding `Cc1csc(Nc2nccc(-c3ccc(N4CCCC4)c(C#N)c3)n2)n1` [DMX-32], the IC50 in assay [1] lay in the range of 0.3 to 9 µM. For the molecule `CN(C)CCNc1ccc(Nc2nccc(-c3ccc(N4CCCC4)c(C#N)c3)n2)cn1` [DMX-33], the IC50 in assay [1] and in assay [2] was less than 0.03 µM each time.

Turning to `CN(C)CCN(C)c1ccc(Nc2nccc(-c3ccc(N4CCCC4)c(C#N)c3)n2)cn1` [DMX-34], the IC50 in assay [1] and in assay [2] was less than 0.03 µM in each case. For the molecule `CC(=O)N(C)c1ccc(Nc2nccc(-c3ccc(N4CCCC4)c(C#N)c3)n2)cc1` [DMX-37], the IC50 in assay [1] and in assay [2] was less than 0.03 µM throughout. For the molecule `N#Cc1cc(-c2ccnc(Nc3ncc(C(N)=O)o3)n2)ccc1N1CCCC1` [DMX-38], in assay [1], the IC50 was in the range of 0.3 to 9 µM. Same read-out and setting: the same measure for `N#Cc1cc(-c2ccnc(Nc3nc(C(N)=O)co3)n2)ccc1N1CCCC1` [DMX-39]: 0.3 to 9 µM; for `Cn1nc(Nc2nccc(-c3ccc(N4CCCC4)c(C#N)c3)n2)cc1C(N)=O` [DMX-40]: 0.03 to 0.3 µM; for `Cn1nc(C(N)=O)cc1Nc1nccc(-c2ccc(N3CCCC3)c(C#N)c2)n1` [DMX-41]: 0.03 to 0.3 µM. Still for that read-out and setting: the same measure for `N#Cc1cc(-c2ccnc(Nc3cccc(C(=O)O)c3)n2)ccc1N1CCCC1` [DMX-42]: less than 0.03 µM; for `CN1CCN(C(=O)c2cccc(Nc3nccc(-c4ccc(N5CCCC5)c(C#N)c4)n3)c2)CC1` [DMX-43]: less than 0.03 µM. The same measure, in the same setting: to `CN1CCC(NC(=O)c2cccc(Nc3nccc(-c4ccc(N5CCCC5)c(C#N)c4)n3)c2)CC1` [DMX-44] belongs less than 0.03 µM; to `CN(C)CCNC(=O)c1cccc(Nc2nccc(-c3ccc(N4CCCC4)c(C#N)c3)n2)c1` [DMX-45], less than 0.03 µM.

Regarding `CC(=O)Nc1ccc(Nc2nccc(-c3ccc(N4CCOCC4)c(C#N)c3)n2)cn1` [DMX-46], the IC50 was 0.03 to 0.3 µM in assay [1] and less than 0.03 µM in assay [2].

With `CC(=O)Nc1ccc(Nc2nccc(-c3ccc(N4CCN(C)CC4)c(C#N)c3)n2)cn1` [DMX-47], the IC50 in assay [1] and in assay [2] was 0.03 to 0.3 µM throughout.

Turning to `CC(=O)Nc1ccc(Nc2nccc(-c3ccc(N4CC[C@H](O)C4)c(C#N)c3)n2)cn1` [DMX-48], the IC50 in assay [1] and in assay [2] was less than 0.03 µM throughout. Consider `CN(C)CC(=O)Nc1ccc(Nc2nccc(-c3ccc(N4CCCC4)c(C#N)c3)n2)cn1` [DMX-49], for which the IC50 in assay [1] and in assay [2] was less than 0.03 µM each time. `CC(=O)Nc1ccc(Nc2nccc(-c3ccc(N4CCC(C(N)=O)CC4)c(C#N)c3)n2)cn1` [DMX-50, 1-{4-[2-(6-Acetylamino-pyridin-3-ylamino)-pyrimidin-4-yl]-2-cyano-phenyl}-piperidine-4-carboxylic acid amide]: the IC50 in assay [1] is less than 0.03 µM; in assay [2], 0.03 to 0.3 µM.

On to `CC(=O)Nc1ccc(Nc2nccc(-c3ccc(N4CCC[C@@H]4C(N)=O)c(C#N)c3)n2)cn1` [DMX-51], for which the IC50 in assay [1] and in assay [2] was 0.03 to 0.3 µM throughout. Turning to `Cn1nccc1Nc1nccc(-c2ccc(N3CC[C@H](O)C3)c(C#N)c2)n1` [DMX-52], the IC50 in assay [1] and in assay [2] was 0.03 to 0.3 µM in each case. On to `Cn1nccc1Nc1nccc(-c2ccc(N3CCC[C@@H]3C(N)=O)c(C#N)c2)n1` [DMX-53], for which the IC50 in assay [1] lay within 0.03 to 0.3 µM; in assay [2], 0.3 to 3 µM. The matching figures for `CN1CCN(c2ccc(Nc3nccc(-c4ccc(N5CC[C@H](O)C5)c(C#N)c4)n3)cn2)CC1` [DMX-54]: less than 0.03 µM and less than 0.03 µM. The matching figures for `CN1CCN(c2ccc(Nc3nccc(-c4ccc(N5CCC[C@@H]5C(N)=O)c(C#N)c4)n3)cn2)CC1` [DMX-55]: less than 0.03 µM and less than 0.03 µM.

As for `Cn1cnc(Nc2nccc(-c3ccc(N4CCCC4)c(C#N)c3)n2)c1` [DMX-57], the IC50 in assay [1] and in assay [2] was 0.03 to 0.3 µM each time.

For `COc1ccc(Nc2nccc(-c3ccc(N4CCCC4)c(C#N)c3)n2)cn1` [DMX-58], the IC50 in assay [1] and in assay [2] was less than 0.03 µM in each case. Take `N#Cc1cc(-c2ccnc(Nc3ccn(CC(N)=O)n3)n2)ccc1N1CCCC1` [DMX-59]: the IC50 in assay [1] and in assay [2] was 0.03 to 0.3 µM throughout.

Values taken from patent US8962609B2, “Pyrimidine compounds as inhibitors of protein kinases IKK epsilon and/or TBK-1, processes for their preparation, and pharmaceutical compositions containing them” (Domainex Limited, priority 2010, dated 2015).
